≈ marks a conversion by molar mass, not a printed value. One block for each compound: values may come before it.
What was measured:
Emulsification index E24 = type: physicochemical; settings: surfactant solution 100 mg/liter; 2 ml hexadecane to 4 ml aqueous sample; measured 24 h later
Protocol: The emulsification index was determined by using a modification of a method described by Cooper and Goldenberg (APPLIED AND ENVIRONMENTAL MICROBIOLOGY, February 1987. p. 224-229). Surfactant solutions were prepared at 100 mg/liter. Emulsifier activity was measured by adding 2 ml of hexadecane to 4 ml of aqueous sample and vortexing at high speed for 1 min. Measurements were made 24 h later. The emulsion index (E24) was calculated using the equation E24(%)=[(height of emulsion layer)/(total height)]×100. Lutensol […] was used as positive control.

[1] = system: Aspergillus montevidensis; experiment: Antimicrobial activity, micro broth dilution assay; type: cell-based
Protocol: (§1) The antimicrobial activity of selected compounds was determined by micro broth dilution assay.

Aspergillus ruber = experiment: Antimicrobial activity, micro broth dilution assay; type: cell-based
Protocol: as §1

Bacillus subtilis = experiment: Antimicrobial activity, micro broth dilution assay; type: cell-based
Protocol: as §1

Brettanomyces sp = experiment: Antimicrobial activity, micro broth dilution assay; type: cell-based
Protocol: as §1

Byssochlamys nivea = experiment: Antimicrobial activity, micro broth dilution assay; type: cell-based; settings: Paecilomyces niveus
Protocol: as §1

Candida parapsilosis = experiment: Antimicrobial activity, micro broth dilution assay; type: cell-based; settings: Lodderomyces parapsilosis
Protocol: as §1

Escherichia coli = experiment: Antimicrobial activity, micro broth dilution assay; type: cell-based
Protocol: as §1

Latilactobacillus sakei = experiment: Antimicrobial activity, micro broth dilution assay; type: cell-based
Protocol: as §1

Leuconostoc carnosum = experiment: Antimicrobial activity, micro broth dilution assay; type: cell-based
Protocol: as §1

Neosartorya sp. = experiment: Antimicrobial activity, micro broth dilution assay; type: cell-based
Protocol: as §1

Penicillium chrysogenum = experiment: Antimicrobial activity, micro broth dilution assay; type: cell-based
Protocol: as §1

Penicillium expansum = experiment: Antimicrobial activity, micro broth dilution assay; type: cell-based
Protocol: as §1

Penicillium paneum = experiment: Antimicrobial activity, micro broth dilution assay; type: cell-based
Protocol: as §1

Penicillium roquefortii = experiment: Antimicrobial activity, micro broth dilution assay; type: cell-based
Protocol: as §1

Pseudomonas aeruginosa = experiment: Antimicrobial activity, micro broth dilution assay; type: cell-based
Protocol: as §1

Saccharomyces cerevisiae = experiment: Antimicrobial activity, micro broth dilution assay; type: cell-based
Protocol: as §1

Staphylococcus aureus = experiment: Antimicrobial activity, micro broth dilution assay; type: cell-based
Protocol: as §1

Zygosaccharomyces bailii = experiment: Antimicrobial activity, micro broth dilution assay; type: cell-based
Protocol: as §1

SMILES: CC(N)C(O)CCCCCCCCCCCCCCC(OC1OC(CO)C(O)C(O)C1O)C(C)O (stereo not drawn) [Compound A]
E24 index (Emulsification index E24): 95%
MIC [1]: 250 µg/mL (≈ 492 µM)
MIC (Aspergillus ruber): 125 µg/mL (≈ 246 µM)
MIC (Bacillus subtilis): 250 µg/mL (≈ 492 µM)
MIC (Brettanomyces sp): 500 µg/mL (≈ 985 µM)
MIC (Byssochlamys nivea): > 500 µg/mL
MIC (Candida parapsilosis): 500 µg/mL (≈ 985 µM)
MIC (Escherichia coli): 600 µg/mL (≈ 1180 µM)
MIC (Latilactobacillus sakei): 125 µg/mL (≈ 246 µM)
MIC (Leuconostoc carnosum): 500 µg/mL (≈ 985 µM)
MIC (Neosartorya sp.): 500 µg/mL (≈ 985 µM)
MIC (Penicillium chrysogenum): 125 µg/mL (≈ 246 µM)
MIC (Penicillium expansum): 250 µg/mL (≈ 492 µM)
MIC (Penicillium paneum): 250 µg/mL (≈ 492 µM)
MIC (Penicillium roquefortii): 125 µg/mL (≈ 246 µM)
MIC (Pseudomonas aeruginosa): 600 µg/mL (≈ 1180 µM)
MIC (Saccharomyces cerevisiae): 250 µg/mL (≈ 492 µM)
MIC (Staphylococcus aureus): 250 µg/mL (≈ 492 µM)
MIC (Zygosaccharomyces bailii): 125 µg/mL (≈ 246 µM)

SMILES: CC(N)C(O)C(O)CCCCCCCCCCCCCCCC(OC1OC(CO)C(O)C(O)C1O)C(C)O (stereo not drawn) [Compound I]
E24 index (Emulsification index E24): 95%

SMILES: CC(O)C(CCCCCCCCCCCCCCCCC(O)C(C)OC1OC(CO)C(O)C(O)C1O)OC1OC(CO)C(O)C(O)C1O (stereo not drawn) [D]
E24 index (Emulsification index E24): 90%

SMILES: CC(N)C(O)/C=C/CCCCCCCCCCCCCCC(OC1OC(CO)C(O)C(O)C1O)C(C)O (stereo not drawn) [J]
E24 index (Emulsification index E24): 96%

Continued, values first:

E24 index (Emulsification index E24): 100%
SMILES: CC(O)C(O)CCCCCCCCCCCCCCCCC(OC1OC(CO)C(O)C(O)C1O)C(C)O (stereo not drawn) [F]

E24 index (Emulsification index E24): 100%
SMILES: CC(O)C(CCCCCCCCCCCCCCCCC(O)C(C)NCC(=O)O)OC1OC(CO)C(O)C(O)C1O (stereo not drawn) [C]

E24 index (Emulsification index E24): 65%
SMILES: CC(O)C(CCCCCCCCCCCCCCCCC(O)C(C)NC=O)OC1OC(CO)C(O)C(O)C1O (stereo not drawn) [Compound E]

E24 index (Emulsification index E24): 94%
SMILES: CC(O)C(CCCCCCCCCCCCCCCCC(O)C(C)NC(=O)CCC(=O)O)OC1OC(CO)C(O)C(O)C1O (stereo not drawn) [H]

E24 index (Emulsification index E24): 99%
MIC [1]: 500 µg/mL (≈ 933 µM)
MIC (Aspergillus ruber): 500 µg/mL (≈ 933 µM)
MIC (Bacillus subtilis): 250 µg/mL (≈ 467 µM)
MIC (Brettanomyces sp): 125 µg/mL (≈ 233 µM)
MIC (Byssochlamys nivea): 500 µg/mL (≈ 933 µM)
MIC (Candida parapsilosis): 250 µg/mL (≈ 467 µM)
MIC (Escherichia coli): 600 µg/mL (≈ 1120 µM)
MIC (Latilactobacillus sakei): 500 µg/mL (≈ 933 µM)
MIC (Leuconostoc carnosum): > 500 µg/mL
MIC (Neosartorya sp.): 125 µg/mL (≈ 233 µM)
MIC (Penicillium chrysogenum): 125 µg/mL (≈ 233 µM)
MIC (Penicillium expansum): 250 µg/mL (≈ 467 µM)
MIC (Penicillium paneum): 500 µg/mL (≈ 933 µM)
MIC (Penicillium roquefortii): 250 µg/mL (≈ 467 µM)
MIC (Pseudomonas aeruginosa): 250 µg/mL (≈ 467 µM)
MIC (Saccharomyces cerevisiae): 125 µg/mL (≈ 233 µM)
MIC (Staphylococcus aureus): 250 µg/mL (≈ 467 µM)
MIC (Zygosaccharomyces bailii): 125 µg/mL (≈ 233 µM)
SMILES: CC(N)C(O)CCCCCCCCCCCCCCCCC(OC1OC(CO)C(O)C(O)C1O)C(C)O (stereo not drawn) [B]
